Entries after “also recorded” stand apart in the source; their conditions may differ. Residues, ends and D or L forms follow the SMILES beside them. *: point of attachment. Oxazole(5-CO) = O=C(c1cnco1)*; Crotonyl(E) = C/C=C/C(=O)*; 2Furoyl = O=C(c1ccco1)*; Cbz = O=C(OCc1ccccc1)*; X1 = O=C(c1ccoc1)*
Key:
Format in all cases: binding
[1] = molecular target: T1, ENL YEATS domain (Homo sapiens, UniProt Q03111); assay: Photo-cross-linking-based competition assay; conditions: competition with photoaffinity probe, in-gel fluorescence
T1 construct: His-SUMO-ENL (1-138); His (N); SUMO (N); made in house; host or cells: E. coli Rosetta
T1 sequence (Q03111 1-138): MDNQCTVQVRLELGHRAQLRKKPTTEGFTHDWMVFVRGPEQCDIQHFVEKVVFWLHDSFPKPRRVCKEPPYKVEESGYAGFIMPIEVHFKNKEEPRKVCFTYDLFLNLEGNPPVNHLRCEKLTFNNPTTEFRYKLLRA

[2] = molecular target: T2, AF9 YEATS domain (Homo sapiens, UniProt P42568); assay: Photo-cross-linking-based competition assay (photoaffinity probe, click chemistry, in-gel fluorescence); conditions: for IC50: competition with photoaffinity probe, in-gel fluorescence; for preliminary screening of competitors: inhibitory activity on AF9 YEATS domain: fluorescent signal intensity at 0.3 μM compared with peptide control
T2 construct: His-AF9 (1-138); His (N); made in house; host or cells: E. coli Rosetta
T2 sequence (P42568 1-138): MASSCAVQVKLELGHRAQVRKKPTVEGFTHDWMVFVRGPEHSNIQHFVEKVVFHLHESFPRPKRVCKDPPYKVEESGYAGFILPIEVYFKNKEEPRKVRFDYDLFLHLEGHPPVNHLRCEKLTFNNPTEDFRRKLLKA
Description: Mobile phase used were water with 0.1% trifluoroacetic acid (buffer A) and 90% acetonitrile in water with 0.1% trifluoroacetic acid (buffer B). The purity (>95%) and identity of peptides were confirmed by LC-MS. The inhibitory activities of the inhibitors were determined by a photo-cross-linking-based competition assay. […] The reactions were incubated for 1 h at r.t . . . . The reactions were quenched by adding 5 volumes of ice-cold acetone and placed at −20° C. overnight to precipitate proteins. After protein precipitation, samples were centrifuged at 6000×g for 5 min at 4° C. The supernatant was discarded and the pellet was washed with ice-cooled methanol twice and air-dried for 10 min. […] Samples were then resolved by SDS-PAGE. The labeled proteins were visualized by scanning the gel on a Typhoon 9410 variable mode imager (excitation 532 nm, emission filter 580 nm). A photo-cross-linking based method was used in this study to estimate inhibitory activity (FIG. 28). This method requires the use of a photoaffinity probe. The probe (probe 1 (SEQ ID NO:48), see below) is derived from a crotonylated peptide, ligand of the protein, carrying a photo-cross-linker and a terminal alkyne as bioorthogonal. The YEATS domain is incubated and bound to the probe through Kcr-dependent recognition. Upon UV-irradiation, the photo-cross-linker is activated and rapidly cross-linked to the protein, converting the non-covalent protein-probe interaction into a covalent linkage. The probe-labeled protein is subsequently conjugated to an azide-functionalized fluorescence dye (for example, rhodamine-N3, Rho-N3) via Cu(I)-catalyzed azide-alkyne cycloaddition (CuAAC, or “click” chemistry). After SDS-PAGE, the protein can be visualized by in-gel fluorescence scanning. If photo-cross-linking of the YEATS domain with photoaffinity probe is performed in the presence of an inhibitor, which occupies the Kcr binding pocket of the YEATS domain and thus inhibits the protein-probe interaction, the percentage of the YEATS domain in the sample that is labeled by the probe will be reduced. The in-gel fluorescence intensity detected will also be decreased. By varying the concentration of inhibitor added in the sample and quantifying the resulting fluorescence intensities, a competition curve of the inhibitor toward the protein-probe interaction will be obtained, which can be used to estimate the IC50 value. Due to the covalent nature of photo-cross-linking, weak protein-protein interactions can be captured and eventually visualized. The protein concentration used in the assay can be as low as several nanograms per microliter, while the fluorescence signal can still be robustly detected and quantified.

[3] = molecular target: T2, AF9 YEATS domain; assay: Isothermal titration calorimetry (ITC); conditions: for Kd / N (sites) / ΔS / ΔH: ITC; for binding enhancement over the native crotonyl group: ITC Kd ratio; for ΔH: Table 3
Description: ^1H and ^13C NMR spectra were recorded on Bruker UltraShield 400 or 600 MHz spectrometers and were calibrated using residual undeuterated solvent as an internal reference. Chemical shifts were reported in ppm, and coupling constant J was reported in Hz. Peptides were analyzed by LC-MS with an Agilent 1260 Infinity HPLC system connected to a Thermo Finnigan LCQ DecaXP MS detector. Peptides were purified on a preparative HPLC system with Waters 2535 Quaternary Gradient Module, Waters 515 HPLC pump, Waters SFO System Fluidics Organizer, and Waters 2767 Sample Manager. Photo-cross-linking was performed with an ENF-260C/FE hand-hang UV lamp (Spectroline). In-gel fluorescence scanning was performed using a Typhoon 9410 variable mode imager from GE Healthcare Life Sciences (excitation 532 nm, emission 580 nm). Images of Coomassie blue staining were acquired by MyECL Imager from Thermo Scientific. All images were processed by ImageJ software (National Institutes of Health), and contrast was adjusted appropriately. ITC experiments were performed with a MicroCal iTC200 titration calorimeter (MicroCal). IC50 and dissociation constants were fit with Origin 7.0 software package (OriginLab).
To further validate the reliability of the results obtained from the photo-cross-linking-based competition assay, we performed isothermal titration calorimetry (ITC) to determine the direct binding affinities of the inhibitors toward the AF9 YEATS domain. […] The ITC measurements were in agreement with the IC50 data, indicating the reliability of the results obtained from the photo-cross-linking-based competition assay.

`C[C@@H]1NC(=O)[C@H]([C@H](C)O)NC(=O)[C@@H](NC(=O)OCc2ccccc2)Cn2cc(nn2)CNC(=N)NCCC[C@H](C(=O)N[C@@H](CCCCNC(=O)c2cnco2)C(N)=O)NC1=O` [Compound 82] gave an IC50 [1] of 9.23 µM and an IC50 [2] of 5.1 µM.

For “45 (Cbz-QTAQK-NH2; not fully specified (residue 5); also: K5: modified crotonyl group with attached furancarbonyl side chain) [Compound 45]”, the “preliminary screening of competitors: inhibitory activity on AF9 YEATS domain” value [2] was “interact with the AF9 YEATS domain weakly”.

With `C[C@H](NC(=O)[C@@H](NC(=O)[C@H](CCC(N)=O)NC(=O)[C@@H](N)CCCCN)[C@@H](C)O)C(=O)N[C@@H](CCCNC(=N)N)C(=O)N[C@@H](CCCCNC(=O)c1ccco1)C(N)=O` [Compound 25] (H-KQTARK(2Furoyl)-NH2; N-terminus and C-terminus assumed) the IC50 [2] was 0.46 µM.

With `C[C@@H](O)[C@H](NC(=O)[C@H](CCC(N)=O)NC(=O)OCc1ccccc1)C(=O)N[C@@H](Cc1c[nH]c2ccccc12)C(=O)N[C@@H](CCCNC(=N)N)C(=O)N[C@@H](CCCCNC(=O)c1ccco1)C(N)=O` [Compound 49] (Cbz-QTWRK(2Furoyl)-NH2; N-terminus and C-terminus assumed) the “preliminary screening of competitors: inhibitory activity on AF9 YEATS domain” value ([2]; listed as A7-W) was “comparable results; also recorded: comparable inhibitory activities”.

`C[C@H](NC(=O)[C@@H](NC(=O)[C@@H](N)CCC(N)=O)[C@@H](C)O)C(=O)N[C@@H](CCCNC(=N)N)C(=O)N[C@@H](CCCCNC(=O)c1ccco1)C(N)=O` [Compound 24] gave an IC50 [2] of 4.5 µM.

`C[C@H](NC(=O)[C@H](CO)NC(=O)[C@H](CCC(N)=O)NC(=O)OCc1ccccc1)C(=O)N[C@@H](CCCNC(=N)N)C(=O)N[C@@H](CCCCNC(=O)c1ccco1)C(N)=O` [Compound 55] (Cbz-QSARK(2Furoyl)-NH2; N-terminus and C-terminus assumed) was tested, and the “preliminary screening of competitors: inhibitory activity on AF9 YEATS domain” value [2] was “comparable inhibitory activities”.

`C[C@H](NC(=O)[C@@H](NC(=O)[C@H](CCC(N)=O)NC(=O)OCc1ccccc1)[C@@H](C)O)C(=O)N[C@@H](CCCNC(=N)N)C(=O)N[C@@H](CCCCNC(=O)c1ccco1)C(N)=O` [peptide control] gave an IC50 [2] of 0.189 µM.

`C[C@H](NC(=O)[C@H](C)NC(=O)[C@H](CCC(N)=O)NC(=O)OCc1ccccc1)C(=O)N[C@@H](CCCNC(=N)N)C(=O)N[C@@H](CCCCNC(=O)c1ccco1)C(N)=O` [Compound 53] (Cbz-QAARK(2Furoyl)-NH2; N-terminus and C-terminus assumed) was tested, and the “preliminary screening of competitors: inhibitory activity on AF9 YEATS domain” value [2] was “comparable inhibitory activities”.

`CC(C)C[C@H](NC(=O)[C@@H](NC(=O)[C@H](CCC(N)=O)NC(=O)OCc1ccccc1)[C@@H](C)O)C(=O)N[C@@H](CCCNC(=N)N)C(=O)N[C@@H](CCCCNC(=O)c1ccco1)C(N)=O` [Compound 47] (Cbz-QTLRK(2Furoyl)-NH2; N-terminus and C-terminus assumed) was tested, and the “preliminary screening of competitors: inhibitory activity on AF9 YEATS domain” value ([2]; listed as A7-L) was “comparable results; also recorded: comparable inhibitory activities”.

In the case of `C[C@H](NC(=O)[C@@H](NC(=O)[C@H](CCC(N)=O)NC(=O)[C@@H](N)CCCCN)[C@@H](C)O)C(=O)N[C@@H](CCCNC(=N)N)C(=O)N[C@@H](CCCCNC(=O)c1cnco1)C(=O)N[C@@H](CO)C(=O)N[C@H](C(=O)NCC(=O)NCC(N)=O)[C@@H](C)O` [Compound 13] (H-KQTARK(Oxazole(5-CO))STGG-NH2), the IC50 [2] is reported as 0.74 µM, the Kd [3] is reported as 1 µM and the “N (sites)” value [3] is reported as 1.04 ± 0.02 sites. The ΔS [3] was −13.8 cal/mol/deg, the “binding enhancement over the native crotonyl group” value [3] was 14.8 fold and the ΔH [3] was -12.29 ± 0.376 kcal/mol.

With “65 (Cbz-NTARK-NH2; not fully specified (residue 5); also: K5: modified crotonyl group with attached furancarbonyl side chain) [Compound 65]” the “preliminary screening of competitors: inhibitory activity on AF9 YEATS domain” value [2] was “activity of inhibitor drops”.

For “43 (Cbz-QTAKK-NH2; not fully specified (residue 5); also: K5: modified crotonyl group with attached furancarbonyl side chain) [Compound 43]”, the “preliminary screening of competitors: inhibitory activity on AF9 YEATS domain” value [2] was “interact with the AF9 YEATS domain weakly”.

Molecule `C[C@H](NC(=O)[C@@H](NC(=O)[C@H](CCC(N)=O)NC(=O)[C@@H](N)CCCCN)[C@@H](C)O)C(=O)N[C@@H](CCCNC(=N)N)C(=O)N[C@@H](CCCCNC(=O)c1ccoc1)C(=O)N[C@@H](CO)C(=O)N[C@H](C(=O)NCC(=O)NCC(N)=O)[C@@H](C)O` [Compound 8] (H-KQTARK(X1)STGG-NH2) has an IC50 [2] of 1.7 µM.

In the case of `C[C@H](NC(=O)[C@@H](NC(=O)[C@H](CCC(N)=O)NC(=O)Cc1ccc2ccccc2c1)[C@@H](C)O)C(=O)N[C@@H](CCCNC(=N)N)C(=O)N[C@@H](CCCCNC(=O)c1ccco1)C(N)=O` [Compound 74], the IC50 [2] is reported as 0.226 µM and the “preliminary screening of competitors: inhibitory activity on AF9 YEATS domain” value ([2]; listed as Cbz-4) is reported as “comparable binding affinity; also recorded: comparable inhibitory activities”.

In the case of `C[C@@H]1NC(=O)[C@H]([C@H](C)O)NC(=O)[C@@H](NC(=O)OCc2ccccc2)CCCCNC(=N)NCCC[C@H](C(=O)N[C@@H](CCCCNC(=O)c2ccco2)C(N)=O)NC1=O` [Compound 78], the IC50 [1] is reported as 43.6 µM and the IC50 [2] is reported as 1.8 µM.

In the case of `C[C@H](NC(=O)[C@@H](NC(=O)[C@H](CCC(N)=O)NC(=O)[C@@H](N)CCCCN)[C@@H](C)O)C(=O)N[C@@H](CCCNC(=N)N)C(=O)N[C@@H](CCCCNC(=O)c1ccco1)C(=O)N[C@@H](CO)C(=O)N[C@H](C(=O)NCC(=O)NCC(N)=O)[C@@H](C)O` [Compound 7] (H-KQTARK(2Furoyl)STGG-NH2), the IC50 [2] is reported as 1.3 µM, the Kd [3] is reported as 3.3 µM and the “N (sites)” value [3] is reported as 0.91 ± 0.01 sites. The ΔS [3] was −15.9 cal/mol/deg, the “binding enhancement over the native crotonyl group” value [3] was 4.5 fold and the ΔH [3] was -12.23 ± 0.11 kcal/mol.

`C/C=C/C(=O)NCCCC[C@H](NC(=O)[C@H](CCCNC(=N)N)NC(=O)[C@H](C)NC(=O)[C@@H](NC(=O)[C@H](CCC(N)=O)NC(=O)[C@@H](N)CCCCN)[C@@H](C)O)C(=O)N[C@@H](CO)C(=O)N[C@H](C(=O)NCC(=O)NCC(N)=O)[C@@H](C)O` [Compound 85, reference compound] (H-KQTARK(Crotonyl(E))STGG-NH2; N-terminus and C-terminus assumed) was tested, and the IC50 [2] was 6 µM, the “N (sites)” value [3] was 0.96 ± 0.02 sites and the ΔS [3] was −17.8 cal/mol/deg. The ΔH [3] was -11.92 ± 0.423 kcal/mol.
